Among the data in patent publication US12018021B2 (UCB Biopharma SRL, priority 2018, dated 2024) are IC50 values, retold here.

Chain of IgE-Tb / sFcεRIα-Y131A-AF488 (P01854 whole entry N146Q/N252Q): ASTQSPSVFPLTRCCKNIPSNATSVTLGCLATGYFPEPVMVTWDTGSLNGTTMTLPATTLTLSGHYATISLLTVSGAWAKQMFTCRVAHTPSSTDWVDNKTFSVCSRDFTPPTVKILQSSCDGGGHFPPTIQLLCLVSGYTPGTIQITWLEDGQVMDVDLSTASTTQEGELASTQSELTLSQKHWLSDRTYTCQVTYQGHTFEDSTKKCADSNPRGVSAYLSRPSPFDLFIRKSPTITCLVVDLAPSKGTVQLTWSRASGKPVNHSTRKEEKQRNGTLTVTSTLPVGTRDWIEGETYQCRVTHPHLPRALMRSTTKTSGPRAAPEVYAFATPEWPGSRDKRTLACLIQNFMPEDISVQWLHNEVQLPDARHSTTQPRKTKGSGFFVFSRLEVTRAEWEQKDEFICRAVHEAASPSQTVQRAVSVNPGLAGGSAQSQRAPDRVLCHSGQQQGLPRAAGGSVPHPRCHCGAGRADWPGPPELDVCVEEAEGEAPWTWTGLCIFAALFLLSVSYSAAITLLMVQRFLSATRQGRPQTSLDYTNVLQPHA

The target of this test is IgE-Tb / sFcεRIα-Y131A-AF488 (Homo sapiens, UniProt P01854, N146Q/N252Q). Briefly: IgE-Tb / sFcεRIα-Y131A-AF488 FRET assay (protocol for examples 234 to 501). The test is classed as binding. The settings on record: examples 234 to 501: compound with IgE-Tb 30 minutes before sFcεRIα-Y131A-AF488, incubated 18 hours at room temperature; read-out: Y131A FRET IC50 range. The procedure, abridged:
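Read-out is the 520/490 nm emission ratio (337 nm excitation) after 18 h at room temperature, background subtracted, fitted four-parameter for IC50. Final reagents: 5 nM IgE-Tb, preincubated 30 min with compound (top typically 10 μM, 2% DMSO, 3-fold 10-point), plus 25 nM sFcεRIα-Y131A-AF488.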
As usually defined, the IC50 is the concentration at which inhibition is half-maximal. With `Cn1nc(C(F)F)cc1Nc1nncn1[C@H]1CCc2sc(NC(=O)[C@H]3CC34CC4)c(C(=O)NC[C@H]3C[C@H]3F)c2C1` [Example 412, (5S)-5-[3-[[5-(Difluoromethyl)-2-methylpyrazol-3-yl]amino]-1,2,4-triazol-4-yl]-N-[[(1R,2R)-2-fluorocyclopropyl]methyl]-2-[[(2S)-spiro[2.2]pentane-2-carbonyl]amino]-4,5,6,7-tetrahydro-1-benzothiophene-3-carboxamide], the IC50 was less than 1000 nM.

Consider `Cn1nc(C(F)F)cc1Nc1nncn1[C@H]1CCc2sc(NC(=O)[C@H]3CC34CC4)c(C(=O)NC[C@H]3C[C@@H]3F)c2C1` [Example 413, (5S)-5-[3-[[5-(Difluoromethyl)-2-methylpyrazol-3-yl]amino]-1,2,4-triazo-4-yl]-N-[[(1R,2S)-2-fluorocyclopropyl]methyl]-2-[[(25)-spiro[2.2]pentane-2-carbonyl]amino]-4,5,6,7-tetrahydro-1-benzothiophene-3-carboxamide], for which the IC50 was less than 1000 nM.

Take `Cn1nc(C(F)F)cc1Nc1nncn1[C@H]1CCc2sc(NC(=O)[C@H]3CC34CC4)c(C(=O)N[C@H]3CC34CC4)c2C1` [Example 414, (5S)-5-[3-[[5-(difluoromethyl)-2-methyl-pyrazol-3-yl]amino]-1,2,4-triazol-4-yl]-2-[[(2S)-spiro[2.2]pentane-2-carbonyl]amino]-N-[(25)-spiro[2.2]pentan-2-yl]-4,5,6,7-tetrahydrobenzothiophene-3-carboxamide]: the IC50 was less than 1000 nM.

As to `Cn1nc(C(F)F)cc1Nc1nncn1[C@H]1CCc2sc(NC(=O)[C@H]3CC34CC4)c(C(=O)N[C@@H]3CC34CC4)c2C1` [Example 415, (5S)-5-[3-[[5-(difluoromethyl)-2-methyl-pyrazol-3-yl]amino]-1,2,4-triazol-4-yl]-2-[[(2S)-spiro[2.2]pentane-2-carbonyl]amino]-N-[(2R)-spiro[2.2]pentan-2-yl]-4,5,6,7-tetrahydrobenzothiophene-3-carboxamide], the IC50 was less than 1000 nM.

For `Cn1nc(C(F)F)cc1Nc1nncn1[C@H]1CCc2sc(NC(=O)[C@H]3CC34CC4)c(C(=O)NCC3CC3)c2C1` [Example 416, (5S)—N-(Cyclopropylmethyl)-5-[3-[[5-(difluoromethyl)-2-methyl-pyrazol-3-yl]amino]-1,2,4-triazol-4-yl]-2-[[(2S)-spiro[2.2]pentane-2-carbonyl]amino]-4,5,6,7-tetrahydrobenzothiophene-3-carboxamide], the IC50 was less than 1000 nM.

Take `Cn1nc(C#N)cc1Nc1nncn1[C@H]1CCc2sc(NC(=O)C3CC3)c(C(=O)NCC3CC3)c2C1` [Example 418, (5S)-5-[3-[(5-Cyano-2-methyl-pyrazol-3-yl)amino]-1,2,4-triazol-4-yl]-2-(cyclopropanecarbonylamino)-N-(cyclopropylmethyl)-4,5,6,7-tetrahydrobenzothiophene-3-carboxamide]: the IC50 was less than 1000 nM.

As for `O=C(NCC1CC1)c1c(NC(=O)C2CC2)sc2c1C[C@@H](n1cnnc1Nc1ccc3c(c1)OC(F)(F)O3)CC2` [Example 419, (5S)-2-(Cyclopropanecarbonylamino)-N-(cyclopropylmethyl)-5-[3-[(2,2-difluoro-1,3-benzodioxol-5-yl)amino]-1,2,4-triazol-4-yl]-4,5,6,7-tetrahydrobenzothiophene-3-carboxamide], the IC50 was less than 1000 nM.

`Cn1nc(C(F)F)cc1Nc1nncn1[C@H]1CCc2sc(NC(=O)[C@H]3CC34CC4)c(C(=O)NC[C@@H]3C[C@@H]3F)c2C1` [Example 420, (5S)-5-[3-[[5-(Difluoromethyl)-2-methyl-pyrazol-3-yl]amino]-1,2,4-triazol-4-yl]-N-[[(1S,2S)-2-fluorocyclopropyl]methyl]-2-[[(2S)-spiro[2.2]pentane-2-carbonyl]amino]-4,5,6,7-tetrahydrobenzothiophene-3-carboxamide]: the IC50 was less than 1000 nM.

On to `O=C(NCC1CC1)c1c(NC(=O)C2CC2)sc2c1C[C@@H](n1cnnc1Nc1ccc(C(F)F)nc1)CC2` [Example 423, (5S)-2-(cyclopropanecarbonylamino)-N-(cyclopropylmethyl)-5-[3-[[6-(difluoromethyl)-3-pyridyl]amino]-1,2,4-triazol-4-yl]-4,5,6,7-tetrahydrobenzothiophene-3-carboxamide], for which the IC50 is less than 1000 nM.

For `Cc1nc(F)ccc1Nc1nncn1[C@H]1CCc2sc(NC(=O)C3CC3)c(C(=O)NCC3CC3)c2C1` [Example 424, (5S)-2-(cyclopropanecarbonylamino)-N-(cyclopropylmethyl)-5-[3-[(6-fluoro-2-methyl-3-pyridyl)amino]-1,2,4-triazol-4-yl]-4,5,6,7-tetrahydrobenzothiophene-3-carboxamide], the IC50 was less than 1000 nM.

On to `Cn1nc(OC2CC2)cc1Nc1nncn1[C@H]1CCc2sc(NC(=O)[C@H]3C[C@@H]3F)c(C(=O)NCC3CC3)c2C1` [Example 425], for which the IC50 was less than 1000 nM.

Consider `Cn1nc(OCC(F)(F)F)cc1Nc1nncn1[C@H]1CCc2sc(NC(=O)[C@H]3C[C@@H]3F)c(C(=O)NCC3CC3)c2C1` [Example 426, (5S)—N-(cyclopropylmethyl)-2-[[(1R,2S)-2-fluorocyclopropanecarbonyl]amino]-5-[3-[[2-methyl-5-(2,2,2-trifluoroethoxy)pyrazol-3-yl]amino]-1,2,4-triazol-4-yl]-4,5,6,7-tetrahydrobenzothiophene-3-carboxamide], for which the IC50 is less than 1000 nM.

In the case of `O=C(NCC1CC1)c1c(NC(=O)C2CC2)sc2c1C[C@@H](n1cnnc1Nc1ccc(C(F)(F)F)nc1)CC2` [Example 427, (5S)-2-(cyclopropanecarbonylamino)-N-(cyclopropylmethyl)-5-[3-[[6-(trifluoromethyl)-3-pyridyl]amino]-1,2,4-triazol-4-yl]-4,5,6,7-tetrahydrobenzothiophene-3-carboxamide], the IC50 was less than 1000 nM.

In the case of `COc1ccc(Nc2nncn2[C@H]2CCc3sc(NC(=O)C4CC4)c(C(=O)NCC4CC4)c3C2)cn1` [Example 428, (5S)-2-(cyclopropanecarbonylamino)-N-(cyclopropylmethyl)-5-[3-[(6-methoxy-3-pyridyl)amino]-1,2,4-triazol-4-yl]-4,5,6,7-tetrahydrobenzothiophene-3-carboxamide], the IC50 is less than 1000 nM.

As to `COc1cc(Nc2nncn2[C@H]2CCc3sc(NC(=O)C4CC4)c(C(=O)NCC4CC4)c3C2)ccn1` [Example 429, (5S)-2-(cyclopropanecarbonylamino)-N-(cyclopropylmethyl)-5-[3-[(2-methoxy-4-pyridyl)amino]-1,2,4-triazol-4-yl]-4,5,6,7-tetrahydrobenzothiophene-3-carboxamide], the IC50 was less than 1000 nM.

As for `O=C(NCC1CC1)c1c(NC(=O)C2CC2)sc2c1C[C@@H](n1cnnc1Nc1ccc(Cl)nc1)CC2` [Example 430, (5S)-5-[3-[(6-chloro-3-pyridyl)amino]-1,2,4-triazol-4-yl]-2-(cyclopropanecarbonylamino)-N-(cyclopropylmethyl)-4,5,6,7-tetrahydrobenzothiophene-3-carboxamide], the IC50 was less than 1000 nM.

Turning to `O=C(NCC1CC1)c1c(NC(=O)C2CC2)sc2c1C[C@@H](n1cnnc1Nc1ccnc(Cl)c1)CC2` [Example 431, (5S)-5-[3-[(2-chloro-4-pyridyl)amino]-1,2,4-triazol-4-yl]-2-(cyclopropanecarbonylamino)-N-(cyclopropylmethyl)-4,5,6,7-tetrahydrobenzothiophene-3-carboxamide], the IC50 is less than 1000 nM.

As to `COc1ccc(Nc2nncn2[C@H]2CCc3sc(NC(=O)C4CC4)c(C(=O)NCC4CC4)c3C2)c(C)n1` [Example 432, (5S)-2-(cyclopropanecarbonylamino)-N-(cyclopropylmethyl)-5-[3-[(6-methoxy-2-methyl-3-pyridyl)amino]-1,2,4-triazol-4-yl]-4,5,6,7-tetrahydrobenzothiophene-3-carboxamide], the IC50 is less than 1000 nM.

`O=C(NCC1CC1)c1c(NC(=O)C2CC2)sc2c1C[C@@H](Nc1nc3cccnc3s1)CC2` [Example 433]: the IC50 was less than 1000 nM.

For the compound `Cn1nncc1Nc1nncn1[C@H]1CCc2sc(NC(=O)C3CC3)c(C(=O)NCC3CC3)c2C1` [Example 434, (5S)-2-(cyclopropanecarbonylamino)-N-(cyclopropylmethyl)-5-[3-[(3-methyltriazol-4-yl)amino]-1,2,4-triazol-4-yl]-4,5,6,7-tetrahydrobenzothiophene-3-carboxamide], the concentration for half-maximal inhibition (IC50) was less than 1000 nM.

`C[C@H]1C[C@@H]1C(=O)Nc1sc2c(c1C(=O)NC[C@@H]1C[C@@H]1F)C[C@@H](n1cnnc1Nc1cc(C(F)F)nn1C)CC2` [Example 435, (5S)-5-[3-[[5-(difluoromethyl)-2-methylpyrazol-3-yl]amino]-1,2,4-triazol-4-yl]-N-[[(1S,2S)-2-fluorocyclopropyl]methyl]-2-[[(1S,2S)-2-methylcyclopropanecarbonyl]amino]-4,5,6,7-tetrahydro-1-benzothiophene-3-carboxamide]: the IC50 was less than 1000 nM.

As for `C[C@H]1C[C@@H]1C(=O)Nc1sc2c(c1C(=O)NC[C@H]1C[C@@H]1F)C[C@@H](n1cnnc1Nc1cc(C(F)F)nn1C)CC2` [Example 436, (5S)-5-[3-[[5-(difluoromethyl)-2-methylpyrazol-3-yl]amino]-1,2,4-triazol-4-yl]-N-[[(1R,2S)-2-fluorocyclopropyl]methyl]-2-[[(1S,2S)-2-methylcyclopropanecarbonyl]amino]-4,5,6,7-tetrahydro-1-benzothiophene-3-carboxamide], the concentration for half-maximal inhibition (IC50) was less than 1000 nM.

With `C[C@H]1C[C@@H]1C(=O)Nc1sc2c(c1C(=O)NC[C@H]1C[C@H](F)C1)C[C@@H](n1cnnc1Nc1cc(C(F)F)nn1C)CC2` [Example 437, (5S)-5-[3-[[5-(difluoromethyl)-2-methylpyrazol-3-yl]amino]-1,2,4-triazol-4-yl]-N-[trans-(3-fluorocyclobutyl)methyl]-2-[[(1S,2S)-2-methylcyclopropanecarbonyl]amino]-4,5,6,7-tetrahydro-1-benzothiophene-3-carboxamide], the IC50 was less than 1000 nM.
